The numbers were not newly measured in US12179232B2 (priority 2020, dated 2024), which cites them from elsewhere.

The data set has as its system coronaviruses. The conditions noted are these: 0.05-0.2% benzalkonium chloride or 0.02% chlorhexidine digluconate.

Take `N=C(NCCCCCCNC(=N)NC(=N)Nc1ccc(Cl)cc1)NC(=N)Nc1ccc(Cl)cc1.O=C(O)[C@H](O)[C@@H](O)[C@H](O)[C@H](O)CO.O=C(O)[C@H](O)[C@@H](O)[C@H](O)[C@H](O)CO` [chlorhexidine digluconate]: the “effectiveness of surface inactivation compared with ethanol, hydrogen peroxide, sodium hypochlorite” value is on record as “less effective”.
For benzalkonium chloride, the “effectiveness of surface inactivation compared with ethanol, hydrogen peroxide, sodium hypochlorite” value was “less effective”.
